This is an account of results in publication PMC9787607, “A Novel Protocol for the Synthesis of 1,2,4-Oxadiazoles Active against Trypanosomatids and Drug-Resistant Leukemia Cell Lines” (Tropical Medicine and Infectious Disease, 2022).

Broadly, the EC50 is the concentration needed to bring the measured effect to its halfway point. The term IC50 denotes the concentration at which inhibition is half-maximal.

Structures can show the parent of a compound that is named as a salt.

Assay [1] concerns RAW 264.7 cells. Nature of the assay: Cytotoxicity to RAW 264.7 cells (MTT). Format: cell-based, murine. The following applies: Mus musculus, RAW264.7, 48 h, read-out: EC50 RAW. Here is the method: LLC-MK2 kidney fibroblasts (ATCC) and RAW 264.7 macrophages (ATCC) were cultivated in culture flasks in complete DMEM with 5% FBS at 37 °C in 5% CO2. The LLC-MK2 cell monolayer was detached by treatment with trypsin-EDTA 0.05% for 5 min at 37 °C. The RAW cell monolayer was detached mechanically. In both cases, the cells were centrifuged at 480× g for 6 min and resuspended in complete DMEM with 5% FBS, and the cell density was determined by counting with trypan-blue dye exclusion on Neubauer chambers before use.
RAW 264.7 cells were seeded in a 96-well microplate (2.0 × 10^4 cells per well) in complete DMEM with 5% FBS (120 µL per well). After incubation for 24 h at 37 °C in 5% CO2, the medium was renewed, and compounds were added at a range of concentrations in triplicate (100–1 μM). Untreated cells and cells treated with DMEM and 10% DMSO were used as negative and positive controls, respectively. Vehicle control containing DMEM and 0.3% DMSO was maintained for comparison. After incubation for 48 h at 37 °C in 5% CO2, the medium was renewed, and an MTT solution in PBS was added (3.0 mM, 20 µL per well). After incubation for 2 h at 37 °C in 5% CO2, the supernatant was removed, and MTT formazan was dissolved in DMSO (150 µL per well). Absorbance was measured using a microplate reader at 570 nm.
(§1) The percent cell or parasite viability was calculated by the formula: % viability = [(A − P)/(N − P)] × 100, A = absorbance of specific well, P = positive control, N = negative control. Determination of half-maximal effective concentrations (EC50), calculated by logarithmic regression, and significance analysis (p < 0.05), using ANOVA and Dunnett’s test, by GraphPad Prism 7.0 software. The results are expressed as the mean and standard deviation (SD) of three independent experiments.

Assay [2] concerns L. amazonensis amastigotes. In words: Anti-L. amazonensis amastigote assessment in RAW 264.7 macrophages. The class given is cell-based, Leishmania amazonensis. The method, then:
RAW 264.7 cells were seeded in a 96-well microplate (2.0 × 10^4 cells per well) in complete DMEM with 5% FBS and incubated for 3 h at 37 °C in 5% CO2 for cell adhesion. The medium was renewed, and L. amazonensis promastigotes (3.0 × 10^5 parasites per well) were added. After 24 h of incubation at 37 °C in 5% CO2, the cell monolayer was washed with PBS to remove noninternalized parasites, the medium was renewed, and compounds were added at a range of concentrations in triplicate (100–1 μM). Untreated infected cells and noninfected RAW 264.7 cells were used as negative and positive controls, respectively. Vehicle control containing DMEM and 0.3% DMSO was maintained for comparison. After incubation for 48 h at 37 °C in 5% CO2, the medium was removed, and a solution containing 0.02% SDS in PBS (20 µL per well) was added. Macrophage lysis and amastigote release were accompanied under an inverted microscope for 10–15 min. SIM with 12.5% SFB (80 µL per well) was added, parasites were allowed to differentiate into promastigotes for 48 h at 27 °C, and an MTT salt solution in PBS was added (3.0 mM, 20 µL per well). After incubation for 2 h at 27 °C, the MTT formazan was dissolved by adding 120 µL of solubilizing buffer (50% isopropanol, 40% acetate buffer pH 5.4, 10% Triton X). Absorbance was measured using a microplate reader at 570 nm.
as §1

In assay [3] the test system is L. amazonensis promastigotes. In words: Anti-L. amazonensis promastigote assessment (MTT). The class given is cell-based. The following applies: Leishmania amazonensis, 48 h, read-out: EC50 L. amazonensis promastigotes. Here is the method: Promastigotes of L. amazonensis (MHOM/BR/75/Josefa) were cultured in Schneider’s insect medium (SIM) with 10% FBS. Parasites were harvested at the stationary growth phase for assessment against promastigotes and 24 h after cultures reached the stationary growth phase for infection assays. […]. Complete SIM media and amphotericin B (AmB) at 10 µM were used as negative and positive controls, respectively. A vehicle control containing SIM with 10% SFB media and 0.3% DMSO was maintained for comparison. The final volume of the experiment was 100 µL. After incubation for 48 h at 27 °C, MTT salt solution in PBS was added (3.0 mM, 20 µL per well). After incubation for 2 h at 27 °C, the MTT formazan was dissolved by adding 120 µL of solubilizing buffer (50% isopropanol, 40% acetate buffer pH 5.4, 10% Triton-X). Absorbance was measured using a microplate reader at 570 nm.
as §1

The subject of assay [4] is T. cruzi epimastigotes. Further details: method as in PMID 19517898. The settings on record: T. cruzi epimastigotes at 50 μM; cited from earlier work.
Assay [5] has as its system HL-60/VCR. Further details: method as in PMID 20411988. The following applies: drug-resistant promyelocytic leukemia; cited from earlier work.
Assay [6] deals with HL-60. Further details: method as in PMID 20411988. The following applies: sensitive promyelocytic leukemia; cited from earlier work.
Assay [7] concerns Leishmania amazonensis. Also noted: method as in PMID 19962891. The following applies: cited from earlier work.
The subject of assay [8] is T. cruzi amastigotes. Also noted: method as in PMID 22727447. The settings on record: cited from earlier work.
Assay [9] relates to A375. Further details: method as in doi:10.1134/S1070363218050304. The following applies: cited from earlier work.
In assay [10] the test system is MCF-7. Further details: method as in doi:10.1134/S1070363218050304. The settings on record: cited from earlier work.
The test system of assay [11] is ACHN. Also noted: method as in doi:10.1134/S1070363218050304. The following applies: cited from earlier work.
In assay [12] the test system is T. cruzi. Also noted: method as in PMID 22217867. The following applies: cited from earlier work.
Assay [13] has as its system Trypanosoma brucei rhodesiense. Further details: method as in PMID 22217867. The following applies: cited from earlier work.
For assay [14], the system named is Leishmania donovani. Also noted: method as in PMID 22217867. The settings on record: cited from earlier work.
In assay [15] the test system is PC3. Also noted: method as in PMID 15142541. The settings on record: cited from earlier work.
Assay [16] deals with Vero. Also noted: method as in PMID 15142541. The settings on record: cited from earlier work.
Assay [17] has as its system T. brucei. Also noted: method as in PMID 15142541. The following applies: cited from earlier work.
Assay [18] has as its system L. donovani. Also noted: method as in PMID 15142541. The following applies: cited from earlier work.
Assay [19] relates to Lucena-1 (K562/VCR). Also noted: method as in PMID 32229586. The following applies: reference drugs; cited from earlier work.
The subject of assay [20] is K562. Further details: method as in PMID 32229586. The settings on record: reference drugs; cited from earlier work.
For assay [21], the system named is FEPS (K562/DNR). In words: MTT cytotoxicity to MDR CML cell line FEPS. The settings on record: reference drugs, FEPS/K562, ratio of EC50 values from ref 64. Format: cell-based, human. Here is the method: (§2) The CML cell lines K562, Lucena-1 (K562/VCR), and FEPS (K562/DNR) were cultured in RPMI-1640 medium supplemented with 25 mM HEPES and 2 g L^−1 sodium bicarbonate adjusted to pH 7.4 with NaOH, 100 U penicillin and […] streptomycin. All media were supplemented with 10% FBS. Dr. Vivian M. Rumjanek (Instituto de Bioquímica Médica, UFRJ, Brazil) kindly donated Lucena-1 and FEPS cells. Briefly, K562 cells were exposed to increasing concentrations of the chemotherapeutic drugs vincristine sulfate (VCR) and daunorubicin hydrochloride (DNR) (both from Sigma-Aldrich), as described previously. Lucena-1 (K562/VCR) and FEPS (K562/DNR) cells were cultured in the presence of either 60 nM VCR or 500 nM DNR to maintain the MDR phenotypes. For subcultures, cells were harvested every three days followed by washing with cold FBS, and a final concentration of 2 × 10^4 cells mL^−1 was maintained at 37 °C in 5% CO2.
(§3) Cell viability was determined by the 3-(4,5-dimethylthiazol-2-yl)-2,5-diphenyltetrazolium (MTT) colorimetric assay. CML cells (2 × 10^4 cells·mL^−1) were incubated for 72 h at 37 °C, followed by treatment with compounds at a range of concentrations (100–1 μM). Negative controls were prepared with 0.5% DMSO. An MTT salt solution was added to each well to a final concentration of 0.5 g·L^−1, and plates were incubated at 37 °C in 5% CO2 for 3 h. After centrifugation, 200 μL DMSO was added to dissolve the dark-blue formazan crystals formed by MTT reduction. Absorbance was measured on a microplate reader at 570 nm, which is directly proportional to formazan contents and indicative of living cells.
as §1

For assay [22], the system named is Lucena-1 (K562/VCR). In words: cells. Format: cell-based, human. The following applies: reference drugs, Lucena-1/K562, ratio of EC50 values from ref 64. Here is the method: as §2, §3, §1
Assay [23] has as its system FEPS (K562/DNR). Also noted: method as in PMID 32229586. The settings on record: reference drugs; cited from earlier work.
The test system of assay [24] is T. cruzi trypomastigotes. Also noted: method as in PMID 23006639. The settings on record: cited from earlier work.
Assay [25] relates to T. cruzi. Also noted: method as in PMID 23006639. The following applies: cited from earlier work.

`C[C@@H]1[C@H](O)[C@@H](C)/C=C/C=C/C=C/C=C/C=C/C=C/C=C/[C@H](O[C@@H]2O[C@H](C)[C@@H](O)[C@H](N)[C@@H]2O)C[C@@H]2O[C@](O)(C[C@@H](O)C[C@@H](O)[C@H](O)CC[C@@H](O)C[C@@H](O)CC(=O)O[C@H]1C)C[C@H](O)[C@H]2C(=O)O` [Amphotericin B, reference compound]: the EC50 in [1] turned out to be 9.8 ± 3.3 µM; in assay [2] (Leishmania amazonensis, RAW264.7, 48 h, read-out: EC50 L. amazonensis intracellular amastigotes) it was 0.151 ± 0.022 µM; in assay [3], 0.094 ± 0.001 µM. The “S.I. (selectivity index)” value in assay [2] (host cell/parasite EC50 ratio, RAW/L. amazonensis) is listed as 65.2.

In the case of `COc1ccc(OC)c(/C=C/C(=O)Nc2nc3ccccc3s2)c1` [Compound 1], in assay [4], the apoptosis is on record as 40.2%, the necrosis is on record as 17.9% and the parasite death was 58.1%.

Take `COc1cccc(/C=C/C(=O)Nc2cc(OC)c(OC)c(OC)c2)c1` [Compound 2]: the IC50 in [5] is 11.6 µM; in [6] it was 3.1 µM.

On to `C=COc1cc(OC)c(C(=O)/C=C/c2ccncc2)c(OC=C)c1` [Compound 3], for which the IC50 in [7] was 0.6 µM.

With `O=C(/C=C/c1ccc2c(c1)OCO2)c1cccs1` [Compound 4], in assay [8], the IC50 was 5.6 µM.

Consider `COc1cc(-c2nc(-c3c(Cl)nc4sc(C)nn34)no2)cc(OC)c1OC` [Compound 6], for which the IC50 in assay [9] is 1.22 µM; in assay [10], 0.23 µM; in [11] it was 0.11 µM.

On to `Cc1ccc(-c2noc(CN3N=NC4C(=O)N(c5ccccc5)C(=O)C43)n2)cc1` (stereo not drawn) [Compound 7], for which the IC50 is 100 µM in assay [12], 21.6 µM in assay [13] and 5.7 µM in assay [14].

Regarding `N#CSCc1nc(-c2ccc(Cl)c(Cl)c2)no1` [Compound 8], the IC50 in [15] was 3.9 µM; in assay [16] it was 70 µM; in assay [17], 5.2 µM; in assay [18] it was 2.3 µM.

As for `COc1cccc2c1C(=O)c1c(O)c3c(c(O)c1C2=O)C[C@@](O)(C(C)=O)C[C@@H]3O[C@H]1C[C@H](N)[C@H](O)[C@H](C)O1` [DNR, daunorubicin hydrochloride], the EC50 was 3.06 ± 0.87 µM in [19], 0.082 ± 0.001 µM in [20] and 6.45 ± 1.27 µM in assay [23]. Besides, in [21], the “RR (relative resistance) FEPS” value was determined as 78.6. Moreover, in [22], the “RR (relative resistance) Lucena-1” value is 37.3.

Turning to `CC[C@]1(O)C[C@H]2CN(CCc3c([nH]c4ccccc34)[C@@](C(=O)OC)(c3cc4c(cc3OC)N(C=O)[C@H]3[C@@](O)(C(=O)OC)[C@H](OC(C)=O)[C@]5(CC)C=CCN6CC[C@]43[C@@H]65)C2)C1` [VCR, vincristine sulfate], the EC50 in assay [19] was 0.85 ± 0.12 µM; in assay [20], 0.054 ± 0.005 µM; in assay [23] it was 1.05 ± 0.07 µM. In addition, in [21], the “RR (relative resistance) FEPS” value is recorded as 19.4. Moreover, the “RR (relative resistance) Lucena-1” value in assay [22] stood at 15.7.

For `O=C(NN=Cc1ccc2c(c1)OCO2)c1nc(-c2ccc(Cl)cc2)no1` [conjugate 9], in [24], the IC50 was 3.5 µM. Besides, in assay [25], the “effect on parasitemia in infected mice” value is “reduce parasitemia”.
